From patent publication US20050287225A1, “Metal cluster nano-compounds for treating tumor diseases” (priority 2002, published 2005) come the findings set out here.

Test [1] has as its system MOR/CPR lung cancer cells, cisplatin-resistant. As to the kind of experiment: In-vitro cytotoxicity MTT assay (Example 4). It is filed as cell-based, human. How it is done: (§1) The in-vitro cytotoxicity was studied by means of the MTT assay (Promega), a colorimetric method in which a tetrazolium-based compound is reduced by living cells to give formazan. The amount of formazan formed is directly proportional to the number of living cells in the culture. Each cell line was incubated in microliter dishes for 48 hours before adding the medicaments. Cisplatin or Au55 was added, followed by an incubation for 72 or 24 hours. Subsequently, the MTT assays were carried out following Promega's information.
Diagram 4 relates to in-vitro cytotoxicity assays on cisplatin-resistant MOR/CPR lung tumor cells, incubated with different concentrations of Au55(Ph2PC6H4SO3H)12Cl6 [Au55] for 24 hours. Each point represents 3 experiments carried out independently of one another and repeated in each case three times.
Diagramm 5 relates to in-vitro cytotoxicity assays on cisplatin-resistant MOR/CPR lung tumor cells incubated with different concentrations of free ligand, Ph2PC6H4SO3H, for 24 hours. Each point represents 3 independent experiments repeated in each case in triplicate.
Table 2 below depicts the inhibitory concentrations of cisplatin and [Au55] incubations with various cell lines over 72 and 24 hours, respectively. The IC50 data were calculated from the graphs obtained from the in vitro cytotoxicity assays MTT. […]
(Tetrazolium dyes change colour on reduction, which living cells bring about.)

Test [2] deals with MOR/CPR lung cancer cells (cisplatin-resistant). As to the kind of experiment: In-vitro cell toxicity, MTT colorimetry assay (Example 2). It is filed as cell-based, human. The following applies: comparison value, incubation not stated. The method, then:
(§2) The in-vitro cytotoxicity properties of the gold-55 particles (Au55) prepared in example 1. C) were carried out on HeLa cancer cells and on MOR/P and MOR/CPR lung cancer cells. MOR/P cells are sensitive to cisplatin, while MOR/CPR cells are resistant to cisplatin.
(§3) The HeLa cells were grown on a DMEM medium at 37° C. in a 5% CO2 atmosphere. The medium had been supplemented with 10% strength FCS serum and antibiotics. Daughter cultures were generated twice weekly. The MOR/P and MOR/CPR cells were grown on an RPMI 1640 medium at 37° C. in a 5% CO2 atmosphere. Said medium had likewise been supplemented with 10% strength FCS serum and antibiotics. Here too, daughter cultures were generated twice weekly.
(§4) The in-vitro cytotoxicity of the Au55 particles was determined in the following manner using 96-well microtiter plates and an MTT colorimetry assay (CellTiter 96® Aqueous One Solution Cell Proliferation Assay, Promega):
(§5) Cultures of each cell line were applied at a concentration of 1—10^5 cells/ml to the microtiter plates and grown in the above-described media at 37° C. in a 5% CO2 atmosphere for 72 hours. […]
(§6) Absorption at 490 nm was measured for each well of each microtiter plate by using a 96-well microtiter plate reader. The absorption measured at 490 nm was plotted as a function of the Au55 particle concentration and the IC50 value was determined.

The subject of test [3] is MOR/P lung cancer cells (cisplatin-sensitive). The test is described as above. The following applies: comparison value, incubation not stated. It is filed as cell-based, human. The method, then: as §2, §3, §4, §5, §6
A further test has as its system MC3 normal bone cells. As to the kind of experiment: In-vitro cytotoxicity MTT assay (Example 4). Type of test: cell-based. The note with it: 72 h, read-out: IC50 cisplatin 72 h. The method, then:
as §1
(§7) Table 2 below depicts the inhibitory concentrations of cisplatin and [Au55] incubations with various cell lines over 72 and 24 hours, respectively. The IC50 data were calculated from the graphs obtained from the in vitro cytotoxicity assays MTT. Each experiment was repeated three times independently from one another by way of determination in triplicate.

Test [4] is described as follows: In-vitro cytotoxicity MTT assay (Example 4). It is filed as cell-based, human. The note with it: Hek, 72 h; read-out: IC50 cisplatin 72 h. The method, then:
as §1, §7

Another test has as its system BLM metastatic melanoma. As to the kind of experiment: In-vitro cytotoxicity MTT assay (Example 4). It is filed as cell-based, human. The note with it: 72 h, read-out: IC50 cisplatin 72 h. How it is done:
as §1, §7

In test [5] the test system is HeLa cervical cancer cells. As to the kind of experiment: In-vitro cytotoxicity MTT assay (Example 4). It is filed as cell-based, human. The following applies: 72 h, read-out: IC50 cisplatin 72 h. The method, then:
as §1, §7

In test [6] the test system is MOR/P lung cancer cells, cisplatin-sensitive. As to the kind of experiment: In-vitro cytotoxicity MTT assay (Example 4). It is filed as cell-based, human. The note with it: 72 h. How it is done:
as §1, §7

Another test deals with MV3 metastatic melanoma. As to the kind of experiment: In-vitro cytotoxicity MTT assay (Example 4). It is filed as cell-based, human. The following applies: 72 h, read-out: IC50 cisplatin 72 h. How it is done:
as §1, §7

The next test deals with U205 osteosarcoma. As to the kind of experiment: In-vitro cytotoxicity MTT assay (Example 4). It is filed as cell-based, human. The following applies: 72 h, read-out: IC50 cisplatin 72 h. The method, then: as §1, §7

Bounds are passed on as bounds.

The IC50 is the concentration at which inhibition is half-maximal.

On to `O=S(=O)(O)c1cccc(P(c2ccccc2)c2ccccc2)c1` [ligand molecules, Ph2PC6H4SO3H], for which the “Influence of the ligand molecules themselves on the life span of the cells” value in test [1] (different concentrations of free ligand, 24 hours) is reported as “cannot be detected”.
With `N.N.[Cl][Pt][Cl]` [cisplatin, cis-diaminodichloroplatinum(II)], the IC50 in test [2] stood at 7.1 ± 1.2 µM; in test [3] it was 3.3 ± 0.3 µM; with MC3 normal bone cells it was 26.1 ± 1.27 µM; in test [1] (72 h), 7.1 ± 1.2 µM; in test [4], 20.1 ± 6 µM; in the test on BLM metastatic melanoma, 54.7 ± 7.6 µM. The IC50 in test [5] is 7.93 ± 0.95 µM; in test [6], 3.3 ± 0.3 µM; with MV3 metastatic melanoma, over 50 µM; in the test with U205 osteosarcoma, 11.2 ± 2.02 µM.
